Results as given in patent publication US20100083405A1, “Method For Controlling Seed Germination In Non-Dormant Seeds And Use Thereof” (priority 2008, published 2010).

Columns and labels:
[1] = tested on: WT/35S::HA-ABI5 seeds; assay: Germination assay, WT/35S::HA-ABI5 seeds; type: in vivo, Arabidopsis
Excerpt: (§1) Wild type (WT) Arabidopsis (Columbia ecotype) was used. The transgenic Arabidopsis line (Ler ecotype) constitutively overexpressing and accumulating ABI5 protein fused to hemagglutinin (HA) peptide tag (referred to as WT/35S::HA-ABI5 plants) was generated as described in Lopez-Molina et al., 2001, above. Transgenic Arabidopsis lines were generated using the Agrobacterium tumefaciens vacuum-infiltration method (Bechtold and Pelletier, 1998, Methods Mol. Biol. 82, 259-266). Seeds (T1) from infiltrated plants were plated in selection medium as described (Zuo et al., 2000, above; Lopez-Molina et al., 2001, above). Non-dormant seeds are used in absence of seed stratification procedure. The infiltration in the plant ovule is performed following the standard “Floral Dip” (Arabidopsis protocol Edited by J M Martinez-Zapater and Julio Salina. Humana Press, “In Planta Agrobacterium-Mediated Transformation of Adult Arabidopsis thaliana Plants by Vacuum infiltration”, Page 259).
(§2) When seeds are sown under “normal conditions” it refers to conditions where seeds are imbibed in a standard germination medium and provided with light (germination assay condition below). “ABA conditions” and “low GA conditions” are respectively conditions where ABA (e.g. 5 μM) and paclobutrazol (e.g. 5 μM, PAC), an inhibitor of GA synthesis, are added to the medium. […]

[2] = tested on: WT seed; assay: Germination assay, WT seeds; type: in vivo, Arabidopsis; conditions: low PAC concentrations (0.125 μM)
Excerpt: as §1, §2

[3] = tested on: ABI5; assay: ABI5 mRNA and protein levels (Northern and Western blot) in WT seeds; type: in vivo, Arabidopsis
Protocol: Total RNA extraction was performed as described by Vicient and Delseny, 1999, Anal. Biochem., 268, 412-413. Northern blot hybridizations were by standard procedures; RNA immobilized on membranes was stained with methylene blue and used as a loading control (Sambrook et al., 1989, above). For ABI5, full length ORF DNA probe (SEQ ID NO: 1) were amplified from cDNA with 5′[…] (SEQ ID NO: 8) 5′ […] (SEQ ID NO: 9).
The mRNA and protein expression of ABI5 was characterized in WT (Columbia ecotype) seeds at different times after their imbibition.
Under normal conditions, ABI5 mRNA and protein levels decreased from peak levels in WT dry seeds (DS) to undetectable levels 24 h to 48 h after imbibition as shown respectively by Northern blot (2 μg of total RNA per lane) and Western blot analyses (10 μg of total protein per lane), where protein extracts were stained with red Ponceau prior to incubation with antibodies against ABI5 (Ponceau) (FIGS. 2A and 2B) (Lopez-Molina et al., 2001, above).

[4] = tested on: HA-ABI5; assay: HA-ABI5 mobility/phosphorylation (Western blot) in WT/35S::HA-ABI5 seeds; type: in vivo, Arabidopsis
Protocol: (§3) The methods used were as described in Lopez-Molina et al., 2001, above.
Thus, low GA levels also stimulate ABI5 activity and phosphorylation. […] An antibody to HA was used to reveal HA-ABI5 protein. λ phosphatase was inactivated by heat (65° C. for 20 min).

[5] = tested on: WT/35S::HA-ABI5 plants transformed with the ind::HA-PKABA1 DNA construct; assay: Germination assay, WT/35S::HA-ABI5 transformed with ind::HA-PKABA1; type: in vivo, Arabidopsis
Protocol: All seed batches compared in this study were harvested on the same day from plants grown side by side (i.e. identical environmental conditions). Dry siliques were obtained about 8 weeks after planting and left for a further 4 weeks at room temperature prior to seed harvesting. Seeds were then permanently stored at 4° C. Seeds obtained in this manner lacked dormancy. A minimum of three independently grown seed batches were used for measuring percent TR and ER. For TR and ER assays, seeds were surface sterilized as described in Lopez-Molina and Chua, 2000, above, and sown in plates with MS medium containing 0.8% (wt/vol.) Bacto-Agar (Applichem). Plates were incubated in a climate-controlled room (20-25° C., 16 h light/day, light intensity 80 ME/m^2/s, humidity 70%). Between 100 and 300 seeds were examined with a Stemi 2000 (Zeiss) stereomicroscope and photographed with a high-resolution digital camera (Canon Power G6, 7.1 Megapixels) at different times of seed imbibition. Photographs were enlarged electronically for measurement of TR and ER.
The first primer contains an XhoI site and the HA sequence (MYPYDVPDYASL (SEQ ID NO: 5) of SEQ ID NO:10), while the second contains a SpeI site. Both restriction sites were used for cloning into a plasmid pER8 (AN AF309825) such as described in Zuo et al., 2000, Plant J., 24, 265-273. […]

[6] = tested on: HA-PKABA1; assay: HA-PKABA1 protein levels (Western blot) in seeds transformed with ind::HA-PKABA1; type: in vivo, Arabidopsis; conditions: 50 μM 17β-estradiol, 48 h after seed imbibition, normal conditions
Excerpt: The first primer contains an XhoI site and the HA sequence (MYPYDVPDYASL (SEQ ID NO: 5) of SEQ ID NO:10), while the second contains a SpeI site. Both restriction sites were used for cloning into a plasmid pER8 (AN AF309825) such as described in Zuo et al., 2000, Plant J., 24, 265-273. The resulting ind::HA-PKABA1 binary vector was then transformed into previously described WT/35S::HA-ABI5 line (Zuo et al., 2000, above; Lopez-Molina et al., 2001, above). As a negative control, WT plants were transformed with the same ind::HA-PKABA1 construct.

[7] = tested on: WT/35S::HA-ABI5 seeds; conditions: low ABA concentration 0.5 μM; cited from earlier work
[8] = tested on: HA-ABI5; conditions: low ABA concentration 0.5 μM; cited from earlier work
[9] = tested on: ABI5; assay: ABI5 protein levels (Western blot) in gal-3 seeds; type: in vivo, Arabidopsis; conditions: gal-3 seeds treated with GA, as early as 48 hours after imbibition
[10] = tested on: HA-ABI5; assay: HA-ABI5 mobility/phosphorylation (Western blot) in WT/35S::HA-ABI5 lines transformed with ind::HA-PKABA1; type: in vivo, Arabidopsis; conditions: excess GA in the medium, inducer present
Protocol: as §3
The mobility differences of HA-ABI5 protein isolated from WT/35S::HA-ABI5 lines transformed with a ind::HA-PKABA1 DNA construct are analyzed by Western blot under the indicated germination conditions. As observed upon ABA treatment, induction of HA-PKABA1 protein triggered ABI5 phosphorylation, detected as a slower ABI5 protein mobility, which could be eliminated upon phosphatase treatment (FIG. 4B).

[11] = biological target: T1, HA-ABI5, Q9SJN0
T1 chain: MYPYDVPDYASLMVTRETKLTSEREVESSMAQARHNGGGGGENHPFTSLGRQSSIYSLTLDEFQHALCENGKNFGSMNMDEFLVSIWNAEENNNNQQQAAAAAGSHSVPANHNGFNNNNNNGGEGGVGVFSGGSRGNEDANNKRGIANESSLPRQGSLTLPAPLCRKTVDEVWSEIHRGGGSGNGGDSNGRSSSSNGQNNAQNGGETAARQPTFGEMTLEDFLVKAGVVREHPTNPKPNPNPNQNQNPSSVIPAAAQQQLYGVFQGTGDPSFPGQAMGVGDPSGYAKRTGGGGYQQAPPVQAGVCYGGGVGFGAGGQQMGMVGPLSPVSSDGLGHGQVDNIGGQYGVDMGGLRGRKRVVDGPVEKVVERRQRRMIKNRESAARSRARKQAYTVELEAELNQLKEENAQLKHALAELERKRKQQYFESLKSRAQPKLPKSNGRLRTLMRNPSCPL

[12] = GA 50 μM added to the germination medium with ABA

Question: For `CC(C)(C)[C@@H](O)[C@@H](Cc1ccc(Cl)cc1)n1cncn1` (racemic) [PAC, paclobutrazol], which seeds germinated ([1]; after one week on 0.125 μM PAC) is on record?
Answer: The seeds germinated was “less than 20%”.

Question: What about the WT seed germination [2] of the same molecule?
Answer: The WT seed germination was “do not prevent WT seed germination”.

Question: And the “ABI5 expression (mRNA and protein)” value ([3]; 5 μM PAC, up to 96 hours after imbibition)?
Answer: The value was “increased and maintained ABI5 expression”.

Question: And the “HA-ABI5 migration in SDS-PAGE gels” value ([4]; PAC 0.125 μM)?
Answer: Its value is “slower HA-ABI5 migration”.

Question: Which “germination after removal of the inducer” value ([5]; 24 h to 56 h upon transfer to medium without inducer (50 μM before)) does the source give for `C[C@]12CC[C@@H]3c4ccc(O)cc4CC[C@H]3[C@@H]1CC[C@@H]2O` [17β-estradiol] here?
Answer: Its value is 100%.

Question: And the HA-PKABA1 protein levels [6]?
Answer: The HA-PKABA1 protein levels was “could be detected only in presence of the inducer”.

Question: With `CC1=CC(=O)CC(C)(C)[C@@]1(O)/C=C/C(C)=C\C(=O)O` [ABA, abscisic acid] as the molecule, how does the “ABI5 mRNA and protein expression” value ([3]; ABA 5 μM, after imbibition) read?
Answer: The value was “stimulated”.

Question: What about the germination response [7] of the same molecule?
Answer: The germination response was “hypersensitive responses”.

Question: What about the HA-ABI5 phosphorylation [8] of the same molecule?
Answer: The HA-ABI5 phosphorylation was “triggered HA-ABI5 phosphorylation”.

Question: For gibberellins [GA], which “repression of seed germination imposed by ABA” value [1, 12] is on record?
Answer: Its value is “did not overcome the repression of seed germination imposed by ABA”.

Question: And the inducer-imposed germination arrest ([5]; additional GA 50 μM in the medium, inducer present)?
Answer: Its inducer-imposed germination arrest is “did not counteract the inducer-imposed arrest”.

Question: What about the ABI5 protein [9] of the same molecule?
Answer: The ABI5 protein was “could not be detected”.

Question: What about the “ABA-dependent ABI5 phosphorylation” value [4, 12] of the same molecule?
Answer: The value was “did not alter ABA-dependent ABI5 phosphorylation”.

Question: And the “HA-PKABA1-dependent phosphorylation of ABI5” value [10]?
Answer: Its value is “did not prevent HA-PKABA1-dependent phosphorylation of ABI5”.

B1: HA-PKABA1 (protein)
chain: MYPYDVPDYASLMDRYEVVRDIGSGNFGVAKLVRDVRTREHFAVKFIERGHKIDEHVQREIMNHRSLKHPNIIRFKEVVLTPTHLAIVMEYASGGELFQRICNAGRFSEDEGRFFFQQLISGVSYCHSMQVCHRDLKLENTLLDGSVAPRLKICDFGYSKSSVLHSQPKSTVGTPAYIAPEVLSRREYDGKVADVWSCGVTLYVMLVGAYPFEDPDEPRNFRKTIARILSVQYSVPDYVRVSMDCIHLLSRIFVGNPQQRITIPEIKNHPWFLKRLPVEMTDEYQRGMQLADMNTPSQSLEEAMAIIQEAQKPGHNALGLAGQVACLGSMDLDDIDFDVDDIDIENSGDFVCPL
Question: Which “ABI5 phosphorylation in planta, seen as slower HA-ABI5 mobility on Western blot (SDS-PAGE), sensitive to phosphatase” value [11] does the source give for B1 here?
Answer: Its value is “induction of HA-PKABA1 protein triggered ABI5 phosphorylation, detected as a slower ABI5 protein mobility, which could be eliminated upon phosphatase treatment”.
